For assay [1], the target named is T1, Human PDGFRα, cytoplasmic domain (GST-PDGFRα) (Homo sapiens, UniProt P16234).
T1 construct: made in house
The assay is described as follows: Human PDGFRα biochemical inhibition assay (off-chip Mobility Shift Assay).

Assay [2] addresses T2, Human PDGFRβ, cytoplasmic domain (GST-PDGFRβ) (Homo sapiens, UniProt P09619).
T2 construct: made in house
The assay is described as follows: Human PDGFRβ biochemical inhibition assay (off-chip Mobility Shift Assay). The procedure, abridged:
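GST-tagged cytoplasmic domain (aa 557-1106) from baculovirus was incubated 1 h at room temperature with compound, CSKtide, ATP at Km and Mg²⁺ in HEPES buffer, pH 7.5. Phosphorylated and unphosphorylated peptide were separated by off-chip mobility shift, and the product ratio P/(P+S) gave percent inhibition.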

Molecules are shown by their SMILES.

In general, IC50 refers to the concentration that gives 50% inhibition.

T1 sequence (P16234 550-1089 T674I): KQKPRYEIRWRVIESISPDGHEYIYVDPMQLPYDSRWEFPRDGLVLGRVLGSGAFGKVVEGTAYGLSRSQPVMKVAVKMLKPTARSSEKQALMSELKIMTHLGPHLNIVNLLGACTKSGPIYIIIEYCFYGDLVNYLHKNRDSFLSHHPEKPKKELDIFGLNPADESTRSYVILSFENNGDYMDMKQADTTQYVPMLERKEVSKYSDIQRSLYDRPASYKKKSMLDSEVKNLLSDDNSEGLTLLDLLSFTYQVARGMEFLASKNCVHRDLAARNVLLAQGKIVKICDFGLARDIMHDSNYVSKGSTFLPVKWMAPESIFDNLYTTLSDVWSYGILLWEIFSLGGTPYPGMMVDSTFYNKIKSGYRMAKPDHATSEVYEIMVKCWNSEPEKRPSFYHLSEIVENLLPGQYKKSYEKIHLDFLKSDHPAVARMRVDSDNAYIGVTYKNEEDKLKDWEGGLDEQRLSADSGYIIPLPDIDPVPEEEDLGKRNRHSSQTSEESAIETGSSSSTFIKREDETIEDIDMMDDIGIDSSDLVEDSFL
T2 sequence (P09619 with tags, fused parts or gaps): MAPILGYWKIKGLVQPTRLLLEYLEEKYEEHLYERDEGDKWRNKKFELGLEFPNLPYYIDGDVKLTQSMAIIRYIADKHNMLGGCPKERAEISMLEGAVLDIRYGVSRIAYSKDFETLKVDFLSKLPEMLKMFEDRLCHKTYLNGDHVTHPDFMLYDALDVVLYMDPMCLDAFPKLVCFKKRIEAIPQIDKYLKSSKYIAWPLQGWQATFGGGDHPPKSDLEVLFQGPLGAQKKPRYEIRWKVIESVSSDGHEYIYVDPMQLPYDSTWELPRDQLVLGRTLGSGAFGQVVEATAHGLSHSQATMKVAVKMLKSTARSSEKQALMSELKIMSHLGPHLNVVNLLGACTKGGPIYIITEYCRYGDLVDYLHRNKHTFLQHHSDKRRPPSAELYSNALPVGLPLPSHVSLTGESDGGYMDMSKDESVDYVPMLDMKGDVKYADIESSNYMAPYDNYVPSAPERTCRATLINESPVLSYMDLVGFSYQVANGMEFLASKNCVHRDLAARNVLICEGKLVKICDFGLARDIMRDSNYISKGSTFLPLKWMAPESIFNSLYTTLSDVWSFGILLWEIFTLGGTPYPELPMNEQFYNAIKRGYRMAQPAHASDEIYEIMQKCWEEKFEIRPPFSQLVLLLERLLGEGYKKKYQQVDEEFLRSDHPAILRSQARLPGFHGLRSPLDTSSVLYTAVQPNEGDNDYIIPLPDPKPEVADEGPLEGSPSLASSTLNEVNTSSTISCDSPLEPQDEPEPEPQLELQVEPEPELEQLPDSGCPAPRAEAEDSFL

Consider `CCn1cc2ncc(N[C@@H](C)c3cccc(NC(=O)c4ccc(N5CCOCC5)c(C)c4)c3)nc2n1` [Compound 386, (S)-N-(3-(1-((2-ethyl-2H-pvrazolo[3,4-b]pyrazin-6-yl)amino)ethyl)phenyl)-3-methyl-4-morpholinobenzamide], for which the IC50 in assay [1] and in assay [2] was under 300 nM each time.

For the compound `CCn1cc2ncc(N[C@@H](C)c3cccc(NC(=O)c4ccc5c(c4)CN(C)C5)c3)nc2n1` [Compound 449, (S)-N-(3-(1-((2-ethyl-2H-pyrazolo[3,4-b]pyrazin-6-yl)amino)ethyl)phenyl)-2-methylisoindoline-5-carboxamide], the IC50 was 300 to 1000 nM in assay [1] and at least 1000 nM in assay [2].

Consider `CCn1cc2ncc(N[C@@H](C)c3cc(NC(=O)c4cnc(C(F)(F)F)c(C)c4)ccc3F)nc2n1` [Compound 335, (S)-N-(3-(1-((2-ethyl-2H-pyrazolo[3,4-b]pyrazin-6-yl)amino)ethyl)-4-fluorophenyl)-5-methyl-6-(trifluoromethyl) nicotinamide], for which the 50% inhibitory concentration (IC50) in assay [1] and in assay [2] was under 300 nM in each case.

With `CSc1ccc(C(=O)Nc2cccc([C@H](C)Nc3cnc4cnn(C)c4n3)c2)cn1` [Compound 218, (S)-N-(3-(1-((1-methyl-1H-pyrazolo[3,4-b]pyrazin-6-yl)amino)ethyl)phenyl)-6-(methylthio)nicotinamide], the IC50 in assay [1] and in assay [2] was under 300 nM throughout.

For `Cc1cc(C(=O)Nc2cccc([C@H](C)Nc3cnc4cnn(C)c4n3)c2)cnc1OC(C)C` [Compound 248, (S)-6-isopropoxy-5-methyl-N-(3-(1-((1-methyl-1H-pyrazolo[3,4-b]pyrazin-6-yl)amino)ethyl)phenyl) nicotinamide], the IC50 in assay [1] and in assay [2] was under 300 nM throughout.

`Cc1cncc(C(=O)Nc2cccc([C@H](C)Nc3cnc4cn[nH]c4n3)c2)c1` [Compound 90, (S)-N-(3-(1-((1H-pyrazolo[3,4-b]pyrazin-6-yl)amino)ethyl)phenyl)-5-methylnicotinamide]: the concentration for half-maximal inhibition (IC50) in assay [1] and in assay [2] was under 300 nM each time.

For the compound `C[C@H](Nc1cnc2cnn(C)c2n1)c1cccc(NC(=O)c2cnc3ccsc3c2)c1` [Compound 49, (S)-N-(3-(1-((1-methyl-1H-pyrazolo[3,4-b]pyrazin-6-yl)amino)ethyl)phenyl) thieno[3,2-b]pyridinc-6-carboxamide], the half-maximal inhibitory concentration (IC50) in assay [1] and in assay [2] was under 300 nM in each case.

`CCn1cc2ncc(N[C@@H](C)c3cccc(NC(=O)c4ccc(CN5CCN(C)C(=O)C5)c(C)c4)c3)nc2n1` [Compound 479, (S)-N-(3-(1-((2-ethyl-2H-pyrazolo[3,4-b]pyrazin-6-yl)amino)ethyl)phenyl)-3-methyl-4-((4-methyl-3-oxopiperazin-1-yl)methyl)benzamide]: the IC50 in assay [1] and in assay [2] was under 300 nM throughout.

Take `C[C@H](Nc1cnc2cnn(C)c2n1)c1cccc(NC(=O)c2cncc(Br)c2)c1` [Compound 111, (S)-5-bromo-N-(3-(1-((1-methyl-1H-pyrazolo[3,4-b]pyrazin-6-yl)amino)ethyl)phenyl)nicotinamide]: the IC50 in assay [1] and in assay [2] was under 300 nM throughout.

In the case of `Cc1n[nH]c2ncc(N[C@@H](C)c3cccc(NC(=O)c4cc(C(C)C)on4)c3)nc12` [Compound 542, (S)-5-isopropyl-N-(3-(1-((3-methyl-1H-pyrazolo[3,4-b]pyrazin-5-yl)amino)ethyl)phenyl)isoxazole-3-carboxamide], the half-inhibitory concentration (IC50) in assay [1] and in assay [2] was under 300 nM throughout.

Regarding `Cc1cc(C(=O)Nc2cccc([C@H](C)Nc3cnc4cnn(C)c4n3)c2)cnc1N1CCSCC1` [Compound 260, (S)-5-methyl-N-(3-(1-((1-methyl-1H-pyrazolo[3,4-b]pyrazin-6-yl)amino)ethyl)phenyl)-6-thiomorpholinonicotinamide], the half-maximal inhibitory concentration (IC50) in assay [1] and in assay [2] was under 300 nM in each case.

As for `Cc1cc(C(=O)Nc2cccc([C@H](C)Nc3cnc4[nH]nc(C)c4n3)c2)cnc1C(F)(F)F` [Compound 538, (S)-5-methyl-N-(3-(1-((3-methyl-1H-pyrazolo[3,4-b]pyrazin-5-yl)amino)ethyl)phenyl)-6-(trifluoromethyl) nicotinamide], the IC50 in assay [1] and in assay [2] was under 300 nM throughout.

Turning to `Cc1cncc(C(=O)Nc2ccc(F)c([C@H](C)Nc3cnc4cn(CC5CNCCO5)nc4n3)c2)c1` (stereo partly drawn) [Compound 411, N-(4-fluoro-3-((1S)-1-((2-(morpholin-2-ylmethyl)-2H-pyrazolo[3,4-b]pyrazin-6-yl)amino)ethyl)phenyl)-5-methylnicotinamide], the IC50 in assay [1] and in assay [2] was under 300 nM each time.

In the case of `CCn1cc2ncc(N[C@@H](C)c3cc(NC(=O)Cc4ccc(Cl)c(C)n4)ccc3F)nc2n1` [Compound 668, (S)-2-(5-chloro-6-methylpyridin-2-yl)-N-(3-(1-((2-ethyl-2H-pyrazolo[3,4-b]pyrazin-6-yl)amino)ethyl)-4-fluorophenyl)acetamide], the IC50 in assay [1] and in assay [2] was under 300 nM throughout.

Consider `C[C@H](Nc1cnc2cnn(C)c2n1)c1cccc(NC(=O)c2ccc(NC3CC3)nc2)c1` [Compound 121, (S)-6-(cyclopropylamino)-N-(3-(1-((1-methyl-1H-pyrazolo[3,4-6]pyrazin-6-yl)amino)ethyl)phenyl)nicotinamide], for which the IC50 in assay [1] and in assay [2] was under 300 nM throughout.

With `C[C@H](Nc1cnc2cnn(C)c2n1)c1cccc(NC(=O)c2cc(C(F)(F)F)nn2C)c1` [Compound 160, (S)-1-methyl-N-(3-(1-((1-methyl-1H-pyrazolo[3,4-b]pyrazin-6-yl)amino)ethyl)phenyl)-3-(trifluoromethyl)-1H-pyrazole-5-carboxamide], the IC50 in assay [1] and in assay [2] was under 300 nM in each case.

As for `CCn1cc2ncc(N[C@@H](C)c3cccc(NC(=O)Cc4cc(C)c(C)cn4)c3)nc2n1` [Compound 693, (S)-2-(4,5-dimethylpyridin-2-yl)-N-(3-(1-((2-ethyl-2H-pyrazolo[3,4-b]pyrazin-6-yl)amino)ethyl)phenyl)acetamide], the figures for the IC50 in assay [1] and in assay [2] were under 300 nM and at least 1000 nM, respectively.

For `Cc1cncc(C(=O)Nc2cccc([C@H](C)Nc3cncc4c3cnn4-c3cnn(C)c3)c2)c1` [Compound 21], the IC50 in assay [1] and in assay [2] was under 300 nM in each case.

For `C[C@H](Nc1cnc2[nH]cc(-c3cnn(C)c3)c2n1)c1cccc(NC(=O)c2ccc(N3CCCC3)nc2)c1` [Compound 585, (S)-N-(3-(1-((7-(1-methyl-1H-pyrazol-4-yl)-5H-pyrrolo[2,3-b]pyrazin-2-yl)amino)ethyl)phenyl)-6-(pyrrolidin-1-yl) nicotinamide], the IC50 in assay [1] and in assay [2] was under 300 nM each time.

Consider `Cc1cncc(C(=O)Nc2cccc([C@H](C)Nc3cnc4cc(C)sc4c3)c2)c1` [Compound 18, (S)-5-methyl-N-(3-(1-((2-methylthieno[3,2-b]pyridin-6-yl)amino)ethyl)phenyl)nicotinamide], for which the IC50 in assay [1] and in assay [2] was under 300 nM throughout.

As to `CSc1ccc(C(=O)Nc2cccc([C@H](C)Nc3cnc4cnn(C)c4n3)c2)cc1C` [Compound 222, (S)-3-methyl-N-(3-(1-((1-methyl-1H-pyrazolo[3,4-b]pyrazin-6-yl)amino)ethyl)phenyl)-4-(methylthio)benzamide], the IC50 in assay [1] and in assay [2] was under 300 nM in each case.

Turning to `CCn1cc2ncc(N[C@@H](C)c3cc(NC(=O)Cc4cccc(C(F)(F)F)c4)ccc3F)nc2n1` [Compound 636, (S)-N-(3-(1-((2-ethyl-2H-pyrazolo[3,4-b]pyrazin-6-yl)amino)ethyl)-4-fluorophenyl)-2-(3-(trifluoromethyl)phenyl) acetamide], the IC50 in assay [1] and in assay [2] was under 300 nM throughout.

Consider `CCn1cc2ncc(N[C@@H](C)c3cccc(NC(=O)c4cnn(CCF)c4)c3)nc2n1` [Compound 298, (S)-N-(3-(1-((2-ethyl-2H-pyrazolo[3,4-b]pyrazin-6-yl)amino)ethyl)phenyl)-1-(2-fluoroethyl)-1H-pyrazole-4-carboxamide], for which the IC50 is under 300 nM in assay [1] and 300 to 1000 nM in assay [2].

Take `C[C@H](Nc1cnc2cnn(C)c2n1)c1cccc(NC(=O)c2ccc(C#N)nc2)c1` [Compound 117, (S)-6-cyano-N-(3-(1-((1-methyl-1H-pyrazolo[3,4-b]pyrazin-6-yl)amino)ethyl)phenyl) nicotinamide]: the IC50 in assay [1] is under 300 nM; in assay [2] it was at least 1000 nM.

Regarding `Cc1cncc(C(=O)Nc2cccc([C@H](C)Nc3cnc4ccn(C)c4c3)c2)c1` [Compound 80, (S)-5-methyl-N-(3-(1-((1-methyl-1H-pyrrolo[3,2-b]pyridin-6-yl)amino)ethyl)phenyl)nicotinamide], the IC50 was 300 to 1000 nM in assay [1] and at least 1000 nM in assay [2].

Take `Cc1cc2ncc(N[C@@H](C)c3cc(NC(=O)c4ccc(C(F)(F)F)nc4)ccc3F)nc2o1` [Compound 614, (S)-N-(4-fluoro-3-(1-((6-methylfuro[2,3-b]pyrazin-3-yl)amino)ethyl)phenyl)-6-(trifluoromethyl)nicotinamide]: the IC50 in assay [1] and in assay [2] was under 300 nM in each case.

Take `Cc1ncc(C(F)(F)F)cc1C(=O)Nc1cccc([C@H](C)Nc2cnc3cnn(C)c3n2)c1` [Compound 126, (S)-2-methyl-N-(3-(1-((1-methyl-1H-pyrazolo[3,4-b]pyrazin-6-yl)amino)ethyl)phenyl)-5-(trifluoromethyl) nicotinamide]: the IC50 in assay [1] was 300 to 1000 nM; in assay [2], at least 1000 nM.

On to `CCn1cc2ncc(N[C@@H](C)c3cc(NC(=O)c4ccc(N5CCCC5)nc4)ccc3F)nc2n1` [Compound 320, (S)-N-(3-(1-((2-ethyl-2H-pyrazolo[3,4-b]pyrazin-6-yl)amino)ethyl)-4-fluorophenyl)-6-(pyrrolidin-1-yl)nicotinamide], for which the IC50 in assay [1] and in assay [2] was under 300 nM throughout.

(Values after patent US20230102554A1 (GB002, INC., priority 2019, published 2023).)
